From patent US10681909B2, “Herbicidal triazoles” (FMC Corporation, priority 2014, dated 2020)

Columns and labels:
wheat [1] = experiment: Test A postemergence; assay type: in vivo, Triticum aestivum; conditions: 0 to 100 scale (0 no effect, 100 complete control), approx. 10 d
Summary of the method: (§1)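 Plant seeds in loam soil blended with sand, then apply test chemical preemergence as a directed soil spray; in parallel, spray potted seedlings (one- to two-leaf, 2 to 10 cm) postemergence. Both treatments use a non-phytotoxic solvent mixture with surfactant.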

foxtail, giant [2] = experiment: Test A preemergence; assay type: in vivo, Setaria faberii; conditions: 0 to 100 scale (0 no effect, 100 complete control)
Summary of the method: as §1

crabgrass, large [3] = experiment: Test A postemergence; assay type: in vivo, Digitaria sanguinalis; conditions: 0 to 100 scale (0 no effect, 100 complete control), approx. 10 d
Summary of the method: as §1

wheat [4] = experiment: Test A preemergence; assay type: in vivo, Triticum aestivum; conditions: 0 to 100 scale (0 no effect, 100 complete control)
Summary of the method: as §1

velvetleaf [5] = experiment: Test A postemergence; assay type: in vivo, Abutilon theophrasti; conditions: 0 to 100 scale (0 no effect, 100 complete control), approx. 10 d
Summary of the method: as §1

morningglory [6] = experiment: Test A postemergence; assay type: in vivo, Ipomoea spp.; conditions: 0 to 100 scale (0 no effect, 100 complete control), approx. 10 d
Summary of the method: as §1

crabgrass, large [7] = experiment: Test A preemergence; assay type: in vivo, Digitaria sanguinalis; conditions: 0 to 100 scale (0 no effect, 100 complete control)
Summary of the method: as §1

foxtail, giant [8] = experiment: Test A postemergence; assay type: in vivo, Setaria faberii; conditions: 0 to 100 scale (0 no effect, 100 complete control), approx. 10 d
Summary of the method: as §1

pigweed [9] = experiment: Test A postemergence; assay type: in vivo, Amaranthus retroflexus; conditions: 0 to 100 scale (0 no effect, 100 complete control), approx. 10 d
Summary of the method: as §1

ducksalad [10] = experiment: Test B flooded paddy test; assay type: in vivo, Heteranthera limosa; conditions: 250 g ai/ha, applied to paddy water at 2-leaf stage, visual rating after 13 to 15 d, scale 0 (no effect) to 100 (complete control)
Summary of the method: (§2)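 Pots were flooded to 3 cm above the soil at treatment, and compounds were applied directly into the paddy water. That depth was held throughout. After 13 to 15 d in a greenhouse, plants were rated visually against untreated controls.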

barnyardgrass [11] = experiment: Test B flooded paddy test; assay type: in vivo, Echinochloa crus-galli; conditions: 250 g ai/ha, applied to paddy water at 2-leaf stage, visual rating after 13 to 15 d, scale 0 (no effect) to 100 (complete control)
Summary of the method: as §2

pigweed [12] = experiment: Test A preemergence; assay type: in vivo, Amaranthus retroflexus; conditions: 0 to 100 scale (0 no effect, 100 complete control)
Summary of the method: as §1

corn [13] = experiment: Test A postemergence; assay type: in vivo, Zea mays; conditions: 0 to 100 scale (0 no effect, 100 complete control), approx. 10 d
Summary of the method: as §1

barnyardgrass [14] = experiment: Test A postemergence; assay type: in vivo, Echinochloa crus-galli; conditions: 0 to 100 scale (0 no effect, 100 complete control), approx. 10 d
Summary of the method: as §1

barnyardgrass [15] = experiment: Test A preemergence; assay type: in vivo, Echinochloa crus-galli; conditions: 0 to 100 scale (0 no effect, 100 complete control)
Summary of the method: as §1

rice [16] = experiment: Test B flooded paddy test; assay type: in vivo, Oryza sativa; conditions: 250 g ai/ha, applied to paddy water at 2-leaf stage, visual rating after 13 to 15 d, scale 0 (no effect) to 100 (complete control)
Summary of the method: as §2

morningglory [17] = experiment: Test A preemergence; assay type: in vivo, Ipomoea spp.; conditions: 0 to 100 scale (0 no effect, 100 complete control)
Summary of the method: as §1

velvetleaf [18] = experiment: Test A preemergence; assay type: in vivo, Abutilon theophrasti; conditions: 0 to 100 scale (0 no effect, 100 complete control)
Summary of the method: as §1

corn [19] = experiment: Test A preemergence; assay type: in vivo, Zea mays; conditions: 0 to 100 scale (0 no effect, 100 complete control)
Summary of the method: as §1

sedge, umbrella [20] = experiment: Test B flooded paddy test; assay type: in vivo, Cyperus difformis; conditions: 250 g ai/ha, applied to paddy water at 2-leaf stage, visual rating after 13 to 15 d, scale 0 (no effect) to 100 (complete control)
Summary of the method: as §2

rice [21] = experiment: Test C flooded paddy test; assay type: in vivo, Oryza sativa; conditions: Flood, applied to paddy water, rating after 13 to 15 d
Description: (§3) At time of treatment, test pots were flooded to 3 cm above the soil surface, treated by application of test compounds directly to the paddy water, and then maintained at that water depth for the duration of the test. Treated plants and controls were maintained in a greenhouse for 13 to 15 d, after which time all species were compared to controls and visually evaluated. […] A dash (-) response means no test result.

barnyardgrass [22] = experiment: Test C flooded paddy test; assay type: in vivo, Echinochloa crus-galli; conditions: Flood, applied to paddy water, rating after 13 to 15 d
Description: as §3

sedge, umbrella [23] = experiment: Test C flooded paddy test; assay type: in vivo, Cyperus difformis; conditions: Flood, applied to paddy water, rating after 13 to 15 d
Description: as §3

ducksalad [24] = experiment: Test C flooded paddy test; assay type: in vivo, Heteranthera limosa; conditions: Flood, applied to paddy water, rating after 13 to 15 d
Description: as §3

CCCc1nc(-c2ccc(Cl)cc2)nn1Cc1ccnc(C(F)(F)F)c1 [Compound 22]
Plant response rating, Wheat (wheat [1]; 125 g ai/ha): 30
Plant response rating, Wheat (wheat [1]; 500 g ai/ha): 40
Plant response rating, Foxtail, Giant (foxtail, giant [2]; 125 g ai/ha): 100
Plant response rating, Foxtail, Giant (foxtail, giant [2]; 500 g ai/ha, approx. 10 d): 100
Plant response rating, Crabgrass, Large (crabgrass, large [3]; 125 g ai/ha): 100
Plant response rating, Crabgrass, Large (crabgrass, large [3]; 500 g ai/ha): 100
Plant response rating, Wheat (wheat [4]; 125 g ai/ha): 10
Plant response rating, Wheat (wheat [4]; 500 g ai/ha, approx. 10 d): 20
Plant response rating, Velvetleaf (velvetleaf [5]; 125 g ai/ha): 60
Plant response rating, Velvetleaf (velvetleaf [5]; 500 g ai/ha): 100
Plant response rating, Morningglory (morningglory [6]; 125 g ai/ha): 50
Plant response rating, Morningglory (morningglory [6]; 500 g ai/ha): 80
Plant response rating, Crabgrass, Large (crabgrass, large [7]; 125 g ai/ha): 100
Plant response rating, Crabgrass, Large (crabgrass, large [7]; 500 g ai/ha, approx. 10 d): 100
Plant response rating, Foxtail, Giant (foxtail, giant [8]; 125 g ai/ha): 70
Plant response rating, Foxtail, Giant (foxtail, giant [8]; 500 g ai/ha): 80
Plant response rating, Pigweed (pigweed [9]; 125 g ai/ha): 100
Plant response rating, Pigweed (pigweed [9]; 500 g ai/ha): 100
Plant response rating, Ducksalad, Flood (ducksalad [10]): 0
Plant response rating, Barnyardgrass, Flood (barnyardgrass [11]): 0
Plant response rating, Pigweed (pigweed [12]; 125 g ai/ha): 100
Plant response rating, Pigweed (pigweed [12]; 500 g ai/ha, approx. 10 d): 100
Plant response rating, Corn (corn [13]; 125 g ai/ha): 20
Plant response rating, Corn (corn [13]; 500 g ai/ha): 50
Plant response rating, Barnyardgrass (barnyardgrass [14]; 125 g ai/ha): 40
Plant response rating, Barnyardgrass (barnyardgrass [14]; 500 g ai/ha): 60
Plant response rating, Barnyardgrass (barnyardgrass [15]; 125 g ai/ha): 40
Plant response rating, Barnyardgrass (barnyardgrass [15]; 500 g ai/ha, approx. 10 d): 70
Plant response rating, Rice, Flood (rice [16]): 0
Plant response rating, Morningglory (morningglory [17]; 125 g ai/ha): 10
Plant response rating, Morningglory (morningglory [17]; 500 g ai/ha, approx. 10 d): 70
Plant response rating, Velvetleaf (velvetleaf [18]; 125 g ai/ha): 20
Plant response rating, Velvetleaf (velvetleaf [18]; 500 g ai/ha, approx. 10 d): 40
Plant response rating, Corn (corn [19]; 125 g ai/ha): 10
Plant response rating, Corn (corn [19]; 500 g ai/ha, approx. 10 d): 20
Plant response rating, Sedge, Umbrella, Flood (sedge, umbrella [20]): 0

Cc1nc(-c2ccc(C(F)(F)F)cc2)nn1Cc1cccc(OC(F)(F)F)c1 [Compound 4]
Plant response rating, Wheat (wheat [1]; 125 g ai/ha): 0
Plant response rating, Wheat (wheat [1]; 500 g ai/ha): 0
Plant response rating, Foxtail, Giant (foxtail, giant [2]; 125 g ai/ha): 0
Plant response rating, Foxtail, Giant (foxtail, giant [2]; 500 g ai/ha, approx. 10 d): 0
Plant response rating, Crabgrass, Large (crabgrass, large [3]; 125 g ai/ha): 10
Plant response rating, Crabgrass, Large (crabgrass, large [3]; 500 g ai/ha): 10
Plant response rating, Wheat (wheat [4]; 125 g ai/ha): 0
Plant response rating, Wheat (wheat [4]; 500 g ai/ha, approx. 10 d): 0
Plant response rating, Velvetleaf (velvetleaf [5]; 125 g ai/ha): 0
Plant response rating, Velvetleaf (velvetleaf [5]; 500 g ai/ha): 10
Plant response rating, Morningglory (morningglory [6]; 125 g ai/ha): 10
Plant response rating, Morningglory (morningglory [6]; 500 g ai/ha): 60
Plant response rating, Crabgrass, Large (crabgrass, large [7]; 125 g ai/ha): 0
Plant response rating, Crabgrass, Large (crabgrass, large [7]; 500 g ai/ha, approx. 10 d): 0
Plant response rating, Foxtail, Giant (foxtail, giant [8]; 125 g ai/ha): 10
Plant response rating, Foxtail, Giant (foxtail, giant [8]; 500 g ai/ha): 10
Plant response rating, Pigweed (pigweed [9]; 125 g ai/ha): 40
Plant response rating, Pigweed (pigweed [9]; 500 g ai/ha): 80
Rice plant response rating (0 to 100) (rice [21]; 31 g ai/ha): 0
Rice plant response rating (0 to 100) (rice [21]; 62 g ai/ha): 0
Rice plant response rating (0 to 100) (rice [21]; 125 g ai/ha): 0
Rice plant response rating (0 to 100) (rice [21]; 250 g ai/ha): 0
Barnyardgrass plant response rating (0 to 100) (barnyardgrass [22]; 31 g ai/ha): 0
Barnyardgrass plant response rating (0 to 100) (barnyardgrass [22]; 62 g ai/ha): 0
Barnyardgrass plant response rating (0 to 100) (barnyardgrass [22]; 125 g ai/ha): 0
Barnyardgrass plant response rating (0 to 100) (barnyardgrass [22]; 250 g ai/ha): 0
Plant response rating, Pigweed (pigweed [12]; 125 g ai/ha): 0
Plant response rating, Pigweed (pigweed [12]; 500 g ai/ha, approx. 10 d): 0
Sedge, Umbrella plant response rating (0 to 100) (sedge, umbrella [23]; 31 g ai/ha): 0
Sedge, Umbrella plant response rating (0 to 100) (sedge, umbrella [23]; 62 g ai/ha): 0
Sedge, Umbrella plant response rating (0 to 100) (sedge, umbrella [23]; 125 g ai/ha): 0
Sedge, Umbrella plant response rating (0 to 100) (sedge, umbrella [23]; 250 g ai/ha): 0
Plant response rating, Corn (corn [13]; 125 g ai/ha): 10
Plant response rating, Corn (corn [13]; 500 g ai/ha): 10
Plant response rating, Barnyardgrass (barnyardgrass [14]; 125 g ai/ha): 0
Plant response rating, Barnyardgrass (barnyardgrass [14]; 500 g ai/ha): 10
Ducksalad plant response rating (0 to 100) (ducksalad [24]; 31 g ai/ha): 0
Ducksalad plant response rating (0 to 100) (ducksalad [24]; 62 g ai/ha): 0
Ducksalad plant response rating (0 to 100) (ducksalad [24]; 125 g ai/ha): 0
Ducksalad plant response rating (0 to 100) (ducksalad [24]; 250 g ai/ha): 0
Plant response rating, Barnyardgrass (barnyardgrass [15]; 125 g ai/ha): 0
Plant response rating, Barnyardgrass (barnyardgrass [15]; 500 g ai/ha, approx. 10 d): 0
Plant response rating, Morningglory (morningglory [17]; 125 g ai/ha): 0
Plant response rating, Morningglory (morningglory [17]; 500 g ai/ha, approx. 10 d): 0
Plant response rating, Velvetleaf (velvetleaf [18]; 125 g ai/ha): 0
Plant response rating, Velvetleaf (velvetleaf [18]; 500 g ai/ha, approx. 10 d): 0
Plant response rating, Corn (corn [19]; 125 g ai/ha): 0
Plant response rating, Corn (corn [19]; 500 g ai/ha, approx. 10 d): 0
